The results in this text go back to patent US20080003691A1, “Method of Detecting Conformational Change of an Amyloid Protein, a Method of Searching a Substance Having an Activity that Affects to Conformational Change of an Amyloid Protein, and Method of Searching a Therapeutic or Diagnostic Agent for Amyloid-Related Diseases” (Fuence Co., Ltd., priority 2004, published 2008).

The target in assay [1] is T1, amyloid β (1-42) (Homo sapiens, UniProt P05067).
T1 construct: Amyloid β (1-42) (Bachem AG, Budendorf, Switzerland); purchased Bachem AG
T1 sequence (P05067 672-713): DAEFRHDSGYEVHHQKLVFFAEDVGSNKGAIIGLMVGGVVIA
Briefly: changes in tension and elasticity of amyloid β (1-42) film measured with a mechanochemical sensor. It counts as biochemical. As for the experimental part: (§1) Amyloid β (1-42) (Bachem AG, Budendorf, Switzerland) was dissolved in 0.1% ammonia water at the concentration of 1 mg/mL. This solution was sprayed under dry air using an electrospry device described in WO 2002-511792 or an immobilzing device described in Japanese Patent Publication No. 2003-136005. The solution was permeated through a mask with holes of 400 μm in length and 800 μm in width, and then a film having 1 μm thickness was prepared on 1.2% polyvinyl pyrrolidone, using an electrospray method (the EDS method). Then protein was cross-linked by glutaraldehyde.
(§2) The resulting film was placed on an apparatus having a mechanochemical sensor which was described in WO 2002-503332 or U.S. Patent Publication No. 6033913, and it was immersed into 10 mM Hepes pH7.4 buffer solution (hereinafter referred to as “the buffer solution”) containing 0.15 M NaCl. The buffer solution was passed through the film existing on the detecting apparatus at the flow rate of 0.1 to 0.2 mL/min, in order to stabilize the tension of the sample film. Thereafter ZnCl2 solution dissolved in said buffer solution was passed through to detect changes in tension and elasticity (FIG. 1).
In FIG. 1, a place where the line uprises from the horizontal state (i.e. steady state), means a point where tension is given to the sample film, and compliance is detected where the line oscillates. […] It is assumed that the particular interaction referred herein is aggregation of amyloid β (1-42) caused by Zn^2+, when considered with many reports such as X. Huang et. al., (J. Biol. Chem., 1997, 272, 26464), C. S. Atwood et. al., (J. Biol. Chem., 1998, 273, 12817), or R. A. Cherny et. al., (Neuron, 2001, 30, 665).
Further, concentration of ZnCl2 was altered from 0.01 mM to 3 mM, in order to examine the effect of ZnCl2 concentration (FIG. 2).
An amyloid β (1-42) membrane was prepared and placed on a detecting apparatus, as described in EXAMPLE 1. The changes in tension and elasticity of the membrane, by CuCl2 dissolved in the buffer solution, were examined (FIG. 3). […] It has been reported that Cu^2+, as well as Zn^2+, facilitates aggregation of amyloid β.

Assay [2] has as its target T2, α-synuclein (Homo sapiens, UniProt P37840).
T2 construct: purchased BIOMOL International LP
Briefly: changes in tension and elasticity of α-synuclein film measured with a mechanochemical sensor. It counts as biochemical. The conditions noted are these: FIG. 4. The method, then: as §1, §2
A α-synuclein (BIOMOL International LP, PA, USA) film was prepared and placed on a detecting apparatus, as described in EXAMPLE 1. […]

Regarding `[Cl][Cu][Cl]` [CuCl2], in assay [1] (CuCl2 dissolved in the buffer solution, FIG. 3), the “change in tension and elasticity of the amyloid β (1-42) membrane by CuCl2” value is “concentration-dependent change”.

For the molecule `O=C(O)CN(CCN(CC(=O)O)CC(=O)O)CC(=O)O` [EDTA], the “tension and elasticity of the film after EDTA, relative to the state prior to addition of ZnCl2” value in assay [1] (amyloid β (1-42) film previously exposed to ZnCl2, FIG. 1) is given as “restored”. In addition, the “tension after EDTA, relative to the state prior to addition of CuCl2” value in assay [1] (amyloid β (1-42) membrane previously exposed to CuCl2, FIG. 3) is reported as “restored by EDTA almost to the state prior to addition of CuCl2”. Moreover, in assay [2] (α-synuclein film previously exposed to ZnCl2), the “tension after EDTA, relative to the state prior to addition of ZnCl2” value is on record as “restored by EDTA almost to the state prior to addition of ZnCl2”.

With `[Cl-].[Cl-].[Zn+2]` [ZnCl2], in assay [1] (ZnCl2 0.01 mM to 3 mM, FIG. 2), the “change in elasticity with respect to ZnCl2 concentration” value is given as “concentration-dependent”. Besides, the “isotropic tension and compliance (the inverse of stiffness) of the amyloid β (1-42) film” value in assay [1] (ZnCl2 solution in 10 mM Hepes pH7.4, 0.15 M NaCl passed over the film, FIG. 1) is reported as “remarkably increased”. In addition, the “change in tension and elasticity of the α-synuclein film by ZnCl2” value in assay [2] (ZnCl2 dissolved in the buffer solution) is listed as “concentration-dependent change”.
